Patent US11214803B2, “Modulators of YAP1 expression” (Ionis Pharmaceuticals, Inc., priority 2019, dated 2022)
Strand notation (5' to 3'): a small letter for the sugar, then the base; units joined by * are phosphorothioate-linked, units joined directly phosphodiester-linked; [ ] holds rarer units or linkages, { } end groups; capitals alone tell only the bases. k = constrained ethyl (cEt); [5mC] = 5-methylcytosine; d = 2'-deoxy (DNA)

Columns and labels:
Assay type in all cases: cell-based
Yap1 mRNA [1] = assay: Dose-dependent inhibition of human Yap1 in A-431 cells (Example 6, 5,000 cells per well, RTS4814); conditions: A-431 cells; for IC50: Yap1 mRNA, linear regression on a log/linear plot; for % UTC 148 nM / % UTC 444 nM / % UTC 1333 nM / % UTC 4000 nM: free uptake, approximately 48 hours, RTS4814
Method: Modified oligonucleotides described in the studies above were tested at various doses in A-431 cells. Cultured A-431 cells at a density of 5,000 cells per well were treated using free uptake with modified oligonucleotides diluted to concentrations described in the tables below. After approximately 48 hours, Yap1 mRNA levels were measured as previously described using the Human Yap1 primer-probe set RTS4814. Yap1 mRNA levels were normalized to total RNA content, as measured by RIBOGREEN®. Results are presented in the tables below as percent control of the amount of Yap1 mRNA relative to untreated control cells (% UTC). IC50s were calculated using a linear regression on a log/linear plot of the data in excel.

Yap1 mRNA [2] = assay: Antisense inhibition of human Yap1 in SNU-449 cells by modified oligonucleotides, single dose (Example 5, RTS36584); conditions: Yap1 mRNA, percent of untreated control; modified oligonucleotides targeting SEQ ID NO: 1 and 2; Table 47
Procedure, shortened: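 Free uptake, 2,000 nM, ~48 h, SNU-449 at 10,000 cells/well. Read-out: qRT-PCR (RTS36584), RIBOGREEN-normalised, expressed as % UTC. Asterisk = oligo hits amplicon region.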

Yap1 mRNA [3] = assay: Antisense inhibition of human Yap1 in A-431 cells by cEt gapmers, single dose (Example 4, RTS4814); conditions: Table 15; A-431 cells, 5,000 cells per well, free uptake, 2,000 nM, approximately 48 hours; RTS4814; normalized to RIBOGREEN; Yap1 mRNA relative to untreated control; * = targets amplicon region of primer probe set
Procedure, shortened: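 A-431 cells took up 3-10-3 cEt gapmers (16-mer, full phosphorothioate, 5-methylcytosines) by free uptake at 2,000 nM for about 48 h. Yap1 mRNA was quantified by qRT-PCR, normalized to total RNA (RIBOGREEN), and reported as % of untreated control.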

Substance | IC50 (Yap1 mRNA [1]; Table 53) [µM] | % UTC 148 nM (Yap1 mRNA [1]; Table 53) [% UTC] | % UTC 444 nM (Yap1 mRNA [1]; Table 53) [% UTC] | % UTC 1333 nM (Yap1 mRNA [1]; Table 53) [% UTC] | % UTC 4000 nM (Yap1 mRNA [1]; Table 53) [% UTC] | IC50 (Yap1 mRNA [1]; Table 54) [µM] | % UTC 148 nM (Yap1 mRNA [1]; Table 54) [% UTC] | % UTC 444 nM (Yap1 mRNA [1]; Table 54) [% UTC] | % UTC 1333 nM (Yap1 mRNA [1]; Table 54) [% UTC] | % UTC 4000 nM (Yap1 mRNA [1]; Table 54) [% UTC] | YAP1 (% UT) (Yap1 mRNA [2]) | YAP1 (% UTC) (Yap1 mRNA [3])
715500 (kA*kA*kG*d[5mC]*d[5mC]*dT*dT*dA*dG*dA*dG*dT*d[5mC]*kA*kA*kT; antisense) [compound 715500] | 3.6 | 97 | 72 | 67 | 48 |  |  |  |  |  |  | 
715501 (kA*kA*kA*dA*dG*d[5mC]*d[5mC]*dT*dT*dA*dG*dA*dG*kT*k[5mC]*kA; antisense) [compound 715501] | > 4 | 82 | 82 | 68 | 56 |  |  |  |  |  |  | 
715508 (k[5mC]*kT*kG*dT*dG*d[5mC]*dT*dG*dG*dG*dA*dT*dT*kG*kA*kT; antisense) [compound 715508] | 3.5 | 78 | 70 | 67 | 43 |  |  |  |  |  |  | 
715510 (kA*kT*kT*dT*dG*d[5mC]*dT*dG*dT*dG*d[5mC]*dT*dG*kG*kG*kA; antisense) [compound 715510] | 2.4 | 88 | 67 | 59 | 45 |  |  |  |  |  |  | 
715523 (kA*kT*k[5mC]*dA*dG*dT*dA*d[5mC]*dT*dG*dG*d[5mC]*d[5mC]*kT*kA*kT; antisense) [compound 715523] | 3.2 | 100 | 62 | 75 | 44 |  |  |  |  |  |  | 
715555 (kG*kT*kT*dA*dT*dT*d[5mC]*dA*dG*d[5mC]*dA*dG*d[5mC]*kT*kT*kA; antisense) [compound 715555] | 2.5 | 93 | 71 | 63 | 42 |  |  |  |  |  |  | 
715577 (kG*k[5mC]*kA*dT*dT*d[5mC]*dA*d[5mC]*dA*dG*dA*dG*dT*kT*kA*kA; antisense) [compound 715577] | > 4 | 87 | 76 | 73 | 45 |  |  |  |  |  |  | 
716370 (k[5mC]*kA*kG*dT*dG*d[5mC]*d[5mC]*dT*dG*d[5mC]*dA*dT*d[5mC]*kA*kG*kT; antisense) [compound 716370] |  |  |  |  |  | > 4 | 81 | 79 | 69 | 49 |  | 
716376 (k[5mC]*kG*kA*dA*dG*dA*dT*dG*d[5mC]*dT*dG*dA*dG*k[5mC]*kT*kG; antisense) [compound 716376] |  |  |  |  |  | > 4 | 103 | 94 | 79 | 50 |  | 
1076481 (antisense k[5mC]*kT*kA*dA*dG*dT*dA*dA*dG*dG*dT*dT*dT*k[5mC]*k[5mC]*k[5mC]) [Compound 1076481] |  |  |  |  |  |  |  |  |  |  | ^mCksTksAksAdsGdsTdsAdsAdsGdsGds13 % UT | 1
